{"source": "paper PMC5328627", "about": "(Journal of natural products, 2009)", "type_in_all_cases": "cell-based, human", "key": {"[1]": {"tested_on": "UO-31", "settings": "renal cancer cell line; single high dose 10^−5 M"}, "[2]": {"tested_on": "NCI-H522", "settings": "non-small cell lung cancer cell line; single high dose 10^−5 M"}, "[3]": {"tested_on": "IGROV1", "settings": "ovarian cancer cell line; single high dose 10^−5 M"}}, "data": [{"substance": "cyclo(ATPFVPP) (SMILES CC(C)[C@@H]1NC(=O)[C@H](Cc2ccccc2)NC(=O)[C@@H]2CCCN2C(=O)[C@H]([C@@H](C)O)NC(=O)[C@H](C)NC(=O)[C@@H]2CCCN2C(=O)[C@@H]2CCCN2C1=O) [compound 2, euryjanicin B]", "values": [{"measurement": "Percent growth of UO-31", "setting": "[1]", "result": 76.3, "unit": "%"}, {"measurement": "Percent growth of NCI-H522", "setting": "[2]", "result": 83.9, "unit": "%"}, {"measurement": "Percent growth of IGROV1", "setting": "[3]", "result": 91.3, "unit": "%"}]}, {"substance": "cyclo(FSPIFPI) (SMILES CC[C@H](C)[C@@H]1NC(=O)[C@@H]2CCCN2C(=O)[C@H](CO)NC(=O)[C@H](Cc2ccccc2)NC(=O)[C@H]([C@@H](C)CC)NC(=O)[C@@H]2CCCN2C(=O)[C@H](Cc2ccccc2)NC1=O) [compound 4, euryjanicin D]", "values": [{"measurement": "Percent growth of UO-31", "setting": "[1]", "result": 82.7, "unit": "%"}, {"measurement": "Percent growth of NCI-H522", "setting": "[2]", "result": 94.6, "unit": "%"}, {"measurement": "Percent growth of IGROV1", "setting": "[3]", "result": 100, "unit": "%"}]}, {"substance": "cyclo(SIPLFPI) (SMILES CC[C@H](C)[C@@H]1NC(=O)[C@@H]2CCCN2C(=O)[C@H](Cc2ccccc2)NC(=O)[C@H](CC(C)C)NC(=O)[C@@H]2CCCN2C(=O)[C@H]([C@@H](C)CC)NC(=O)[C@H](CO)NC1=O) [compound 3, euryjanicin C]", "values": [{"measurement": "Percent growth of UO-31", "setting": "[1]", "result": 83.4, "unit": "%"}, {"measurement": "Percent growth of NCI-H522", "setting": "[2]", "result": 95.1, "unit": "%"}, {"measurement": "Percent growth of IGROV1", "setting": "[3]", "result": 100, "unit": "%"}]}, {"substance": "dominicin [compound 5]", "values": [{"measurement": "Percent growth of UO-31", "setting": "[1]", "result": 32.8, "unit": "%"}, {"measurement": "Percent growth of NCI-H522", "setting": "[2]", "result": 100, "unit": "%"}, {"measurement": "Percent growth of IGROV1", "setting": "[3]", "result": 100, "unit": "%"}]}, {"substance": "euryjanicin A [compound 1]", "values": [{"measurement": "Percent growth of UO-31", "setting": "[1]", "result": 73.6, "unit": "%"}, {"measurement": "Percent growth of NCI-H522", "setting": "[2]", "result": 72.2, "unit": "%"}, {"measurement": "Percent growth of IGROV1", "setting": "[3]", "result": 82.6, "unit": "%"}]}]}
